# Earlier results, collected in patent US6338859B1, “Polymeric micelle compositions” (Labopharm Inc., priority 2000, dated 2002).
# Values joined by “and” are separate entries in the source; they are usually repeats but may differ in a detail not shown here. Equal values may be shown once. Read-outs that look alike come from different tables or passages of the source. Marks after values point to notes of the source that are not given here.
# Tests used:
# [1] = not given; remark: listed apart in the source
# [2] = polymer PEO-PBLA, physical entrapment
# [3] = polymer PEO-P(Asp), chemical bonding
# [4] = polymer PEO-PE, physical entrapment
molecule,measurement,setting,value
C[C@@H]1[C@H](O)[C@@H](C)/C=C/C=C/C=C/C=C/C=C/C=C/C=C/[C@H](O[C@@H]2O[C@H](C)[C@@H](O)[C@H](N)[C@@H]2O)C[C@@H]2O[C@](O)(C[C@@H](O)C[C@@H](O)[C@H](O)CC[C@@H](O)C[C@@H](O)CC(=O)O[C@H]1C)C[C@H](O)[C@H]2C(=O)O [Amphotericin B],Micelle size with drug,[2],26 nm
same,hemolytic activity,[1]; after incorporation into PEO-PBLA micelles,decrease
N.N.[Cl][Pt][Cl] [Cisplatin],Micelle size with drug,[3],16 nm
"COc1cccc2c1C(=O)c1c(O)c3c(c(O)c1C2=O)C[C@@](O)(C(=O)CO)C[C@@H]3O[C@H]1C[C@H](N)[C@H](O)[C@H](C)O1 [DOX, doxorubicin]",Micelle size with drug,[3],14-131 nm and 17-42 nm
same,Micelle size with drug,"polymer PEO-P(Asp), chemical bonding, listed as Doxirubicin (DOX)",50 nm
same,Micelle size with drug,[2],30 nm and 37 nm
same,retention of drug in micelles,"[1]; in PEO-PBLA after freeze drying and reconstitution in water, iodide quenching",retained
Cc1cc(N)c2ccccc2[n+]1CCCCCCCCCC[n+]1c(C)cc(N)c2ccccc21 [Dequalinium],Micelle size with drug,[4],15 nm
O=C(CCCN1CCC(O)(c2ccc(Cl)cc2)CC1)c1ccc(F)cc1 [Haloperidol],Micelle size with drug,"polymer PEO-PPO-PEO, physical entrapment",15 nm
COc1ccc2c(c1)c(CC(=O)O)c(C)n2C(=O)c1ccc(Cl)cc1 [Indomethacin],Micelle size with drug,[2],25-29 nm
same,Micelle size with drug,"polymer PEO-PCL, physical entrapment",145-165 nm and 114-156 nm
Gd-DTPA-PE,Micelle size with drug,[4],20 nm
KRN-5500,Micelle size with drug,"polymer PEO-(C16, BLA), physical entrapment, after the sonication of PEO(C16, BLA) aggregates",71* nm
^111In-DTPA-SA,Micelle size with drug,[4],20 nm
"Soybean trypsin inhibitor: Soybean trypsin inhibitor physically entrapped in PEO-PE micelles (protein, UniProt P01070 25-205, looked up, entrapped in PEO-PE micelles) Trypsin inhibitor A: DFVLDNEGNPLENGGTYYILSDITAFGGIRAAPTGNERCPLTVVQSRNELDKGIGTIISSPYRIRFIAEGHPLSLKFDSFAVIMLCVGIPTEWSVVEDLPEGPAVKIGENKDAMDGWFRLERVSDDEFNNYKLVFCPQQAEDDKCGDIGISIDHDDGTRRLVVSKNKPLVVQFQKLDKESL",Micelle size with drug,[4],15 nm
